# Measured values published in US20120124703A1, “NOVEL COPRINUS COMATUS AND TREMELLA MESENTERICA MUSHROOM STRAINS, PRODUCTS AND EXTRACTS THEREOF AND COMPOSITIONS COMPRISING THEM” (PALMED TEVA LTD, priority 2009, published 2012).
# What was measured:
# [1] = Scavenging activity on DPPH radicals; assay type: biochemical; settings: standard BHA 1 mg/ml
# Method: Scavenging Activity on 1,1-diphenyl-2-picrylhydrazyl. The scavenging activity of extracts from C. comatus was measured on 1,1-diphenyl-2-picrylhydrazyl (DPPH) radicals. An aliquot of 0.5 ml of 0.1 mM DPPH radical (Sigma) in methanol was added to a test tube with 1 mL of mushroom ethanol or water extract of different concentrations (0.5 to 9 mg/mL). Methanol or water was used instead of the mushroom sample as a control. The reaction mixture was vortex-mixed at room temperature and the absorbance was determined immediately after mixing by measuring at 520 nm with a spectrophotometer. Inhibition of free radicals by DPPH was calculated as follows: I (%)=(Ablank−Asample/Ablank)×100, where I is inhibition (%), Ablank is the absorbance of the control reaction (containing all reagents except the test compound), and Asample is the absorbance of the test compound. The extract concentration providing 50% inhibition (EC50) was calculated from the graph of scavenging activity of radical percentage against extract concentration. Butylated hydroxyanisole (BHA) in concentration of 1 mg/ml methanol was used as the standard. Each value is expressed as mean±standard deviation (n=3).
# Free-radical scavenging is one of the known mechanisms by which antioxidants inhibit lipid oxidation. […] The decrease in absorbance is taken as a measure of the extent of radical-scavenging.
# [2] = Antioxidant activity, β-carotene bleaching method; assay type: biochemical
# Method: β-Carotene Bleaching Method. The antioxidant activity of C. comatus extracts was determined according to the β-carotene bleaching method. A reagent mixture containing 1 ml of (3-carotene (Sigma) solution (0.2 mg/ml in chloroform), 0.02 ml of linoleic acid (Sigma), and 0.2 ml of Tween 80 (Sigma) was evaporated to dryness under a nitrogen stream. Fifty milliliters of oxygenated distilled water and 0.2 ml of mushroom crude extracts (either ethanol or culture liquid) with different concentrations (2-8 mg/ml) were added. Pure methanol or water (0.2 ml) was used as the control, and the blank contained all the earlier chemicals except β-carotene. All these mixtures were then shaken to form a liposome solution and then incubated at 50° C. for 2 h. The absorbance of an aliquot (1 ml) of these liposome solutions at 470 nm was monitored by a spectrophotometer at time intervals of 20 min. Butylated hydroxyanisole (BHA) (Sigma) (2 mg/ml in methanol) was used as the standard. […] The bleaching rate (R) of 13-carotene was calculated according to
# where: ln—natural log, a—absorbance at time 0, b—absorbance at time t, and t—incubation interval 20, 40, 60, 80, 100, or 120 min.
# The antioxidant activity (AOA) was calculated, in terms of percent inhibition relative to the control, using Equation (2) […]
structure (smiles),measurement,setting,value
"COc1ccc(O)c(C(C)(C)C)c1 [BHA, Butylated hydroxyanisole]",Scavenging ability (% of inhibition),[1],92.0%
same,Antioxidant activity (%) of water extracts,"[2]; extract concentration 2.0 mg/mL, BHA 2 mg/mL in methanol",98.2%
same,Antioxidant activity (%) of ethanol extracts,"[2]; extract concentration 2.0 mg/ml, BHA 2 mg/ml in methanol",98.2%
